# Experimental data reported in ChEMBL document CHEMBL1933034, “Synthesis, docking and in vitro antimalarial evaluation of bifunctional hybrids derived from β-lactams and 7-chloroquinoline using click chemistry” (Bioorg Med Chem Lett, 2012).
# System: Plasmodium falciparum
# Experiment: Antimalarial activity against chloroquine-resistant ring stage of Plasmodium falciparum W2 infected in human erythrocytes assessed as inhibition of parasitemia after 48 hrs by FACS analysis
# Type: functional, organism-based
# Conditions: W2, 48 h
row,SMILES,IC50
1,O=C1[C@@H](N(Cc2cn(-c3ccnc4cc(Cl)ccc34)nn2)Cc2cn(-c3ccnc4cc(Cl)ccc34)nn2)[C@@H](/C=C/c2ccccc2)N1Cc1ccccc1,2700 nM
2,O=C1[C@@H](NCc2cn(-c3ccnc4cc(Cl)ccc34)nn2)[C@@H](/C=C/c2ccccc2)N1c1ccccc1,1900 nM
3,O=C1[C@@H](N(Cc2cn(-c3ccnc4cc(Cl)ccc34)nn2)Cc2cn(-c3ccnc4cc(Cl)ccc34)nn2)[C@@H](/C=C/c2ccccc2)N1C1CCCCC1,2800 nM
4,O=C1[C@@H](N(Cc2cn(-c3ccnc4cc(Cl)ccc34)nn2)Cc2cn(-c3ccnc4cc(Cl)ccc34)nn2)[C@@H](/C=C/c2ccccc2)N1c1ccccc1,2100 nM
5,O=C1[C@@H](NCc2cn(-c3ccnc4cc(Cl)ccc34)nn2)[C@@H](/C=C/c2ccccc2)N1C1CCCCC1,4300 nM
6,O=C1[C@@H](N(Cc2cn(-c3ccnc4cc(Cl)ccc34)nn2)Cc2cn(-c3ccnc4cc(Cl)ccc34)nn2)[C@@H](/C=C/c2ccccc2)N1c1ccc(F)cc1,1100 nM
7,Cc1ccc(N2C(=O)[C@@H](NCc3cn(-c4ccnc5cc(Cl)ccc45)nn3)[C@H]2/C=C/c2ccccc2)cc1,> 10000 nM
8,O=C1[C@@H](NCc2cn(-c3ccnc4cc(Cl)ccc34)nn2)[C@@H](/C=C/c2ccccc2)N1c1ccc(F)cc1,> 10000 nM
9,Cc1ccc(N2C(=O)[C@@H](N(Cc3cn(-c4ccnc5cc(Cl)ccc45)nn3)Cc3cn(-c4ccnc5cc(Cl)ccc45)nn3)[C@H]2/C=C/c2ccccc2)cc1,1500 nM
10,O=C1[C@@H](NCc2cn(-c3ccnc4cc(Cl)ccc34)nn2)[C@@H](/C=C/c2ccccc2)N1Cc1ccccc1,5900 nM
